What was measured:
immature rats = assay: Uterotrophic and antiuterotrophic actions in immature rat assay (uterine weight); type: in vivo; settings: for suppression of estradiol's activity (uterotrophic action): with 17b-estradiol
Description: The uterotrophic and antiuterotrophic actions of CHF 3316.01 were studied to determine the estrogenic and antiestrogenic activity of CHF 3316.01 in immature rat assay. All experiments were conducted using subcutaneous injection of the test compound as a solution in 20% Solutol HS 15. Each experiment was accompained by a vehicle control group and a positive control group (17b-estradiol 2 mg/kg by subcutaneous injection). The test protocol was based on the immature rat assay protocol described by […]. and […] Endocr (1978), 99, 445-464. Animals were dosed on 3 successive days with the appropriate material. Animals were killed by an overdose of CO2 24 hr after the final dose. The body of the uterus was cut just above its junction with the cervix and at the junction of the uterine horns with the ovaries. The uterus was then weighed. Generally, 6 animals per exposure group were employed. The daily dose levels used for CHF 3316.01 were 10 and 20 mg/kg.

estrogen receptors = biological target: T1, estrogen receptors (Bos taurus, UniProt P49884); assay: biochemical
T1 sequence (P49884 1-596): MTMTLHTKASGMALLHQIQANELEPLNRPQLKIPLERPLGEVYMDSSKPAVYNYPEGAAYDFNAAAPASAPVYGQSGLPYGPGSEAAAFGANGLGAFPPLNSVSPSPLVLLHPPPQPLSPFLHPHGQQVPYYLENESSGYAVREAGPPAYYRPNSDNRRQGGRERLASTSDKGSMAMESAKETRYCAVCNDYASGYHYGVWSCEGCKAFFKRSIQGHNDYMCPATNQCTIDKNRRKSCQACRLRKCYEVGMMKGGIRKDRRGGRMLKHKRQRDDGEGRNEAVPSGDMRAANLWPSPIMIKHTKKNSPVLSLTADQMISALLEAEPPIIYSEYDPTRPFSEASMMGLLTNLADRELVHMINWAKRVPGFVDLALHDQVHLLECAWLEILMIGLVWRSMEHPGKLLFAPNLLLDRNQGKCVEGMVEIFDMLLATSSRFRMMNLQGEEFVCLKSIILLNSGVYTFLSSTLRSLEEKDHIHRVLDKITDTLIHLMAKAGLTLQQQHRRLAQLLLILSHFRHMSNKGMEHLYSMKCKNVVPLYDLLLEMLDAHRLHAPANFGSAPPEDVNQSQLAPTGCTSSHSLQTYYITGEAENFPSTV
Description: To determine the estrogen receptor binding affinity of CHF 3316.01 calf uterus, prepared as previously described in McGuire W. L. et al. Eds. Estrogen receptors in human breast cancer, Raven Press N. Y., (1975), was used as source of estrogen receptors.
Displacement curves were generated using final concentrations of 1.5 nM 17b-[3H]estradiol as radioligand and (1)/(2) [formula] -log unit increments of CHF 3316.01, ranging from 0.1 to 10,000 nM.
Incubation time was 24 hr at 4°C, after which dextran-treated charcoal was added. The suspension was then centrifuged, and radioactivity in the supernatant fluid was determined by scintillation counting. Percent binding was determined in duplicate at each concentration of displacing ligand.
IC50 value for 50 % inhibition of 17b-[3H]estradiol binding and Ki value were determined by non linear regression analysis of log concentration-displacement curves.

[1] = system: fetal rat long bones (radius and ulna); assay: Bone resorption in fetal rat long bone culture (bPTH 1-34 induced 45Ca release); settings: for inhibition of 45Ca release induced by bPTH: bPTH 1-34 5 nM, 5 days culture
[2] = system: fetal rat long bones (radius and ulna); assay: as above; type: cell-based; settings: 5 nM, day 5; n=7
Description: Pregnant Sprague-Dawley rats were injected subcutaneously with 0.2 mCi 45Ca (CaCl2, >10 Ci/g) on the 18th day of gestation (day of vaginal plug discovery equals day 0 of pregnancy).
To remove freely exchangeable 45Ca, bones were pre-incubated for 24 hours in 48-well polystyrene culture dishes (Costar, Cambridge, MA) containing 500 µl of a culture medium (BGJ-B medium) in an air humidified incubator at 37°C in 5% C02.
The medium was changed after 2 days.

How did the “increase of uterine weight above vehicle control group” value (immature rats; 2 mg/kg subcutaneous, three successive daily injections, immature rats) turn out when C[C@]12CC[C@@H]3c4ccc(O)cc4CC[C@H]3[C@@H]1CC[C@@H]2O [17b-estradiol, reference compound] was run?
The value was 93%.

Which Ki (estrogen receptors) does the source give for Cl.O=C(c1ccc(OCCN2CCCCC2)cc1)c1oc2cc(O)ccc2c(=O)c1-c1ccc(O)cc1 [CHF 3316.01, 4',7-dihydroxy-2-(4-(2-(N-piperidinyl)ethyloxy)benzoyl)isoflavone hydrochloride] here?
The Ki was 0.0039 ± 0.0003 µM.

And the “suppression of estradiol's activity (uterotrophic action)” value (immature rats; 10 mg/Kg per day subcutaneous, 3 days)?
Its value is 63%.

And the “suppression of estradiol's activity (uterotrophic action)” value (immature rats; 20 mg/Kg per day subcutaneous, 3 days)?
The value was 78%.

And the uterotrophic activity (immature rats; 10 and 20 mg/kg per day subcutaneous, 3 days)?
The uterotrophic activity was “devoid of uterotrophic activity”.

What about the “inhibition of 45Ca release induced by bPTH” value (shortened to “inhibition … by bPTH”) ([1]; 3 mM (so in the source)) of the same compound?
Its value is 24.81±2.14%.

What about the “inhibition … by bPTH” value ([1]; 10 mM (so in the source)) of the same compound?
The value was 37.86%.

What about the “inhibition … by bPTH” value ([1]; 30 mM (so in the source)) of the same compound?
Its value is “full inhibition”.

What about the IC50 ([1]; Rattus norvegicus, read-out: apparent IC50 value) of the same compound?
Its IC50 is 10 µM.

What about the “potency relative to M3 (more potent)” value ([1]; versus metabolite 3 of ipriflavone M3) of the same compound?
Its value is about 2 fold.

With O=P(O)(O)C(Cl)(Cl)P(=O)(O)O [Disodium clodronate, dichloromethylene bisphosphonate, reference compound] as the compound, how does the inhibition at 5 µM ([1]; Rattus norvegicus, 120 h, read-out: inhibition of resorption) read?
The inhibition at 5 µM was 90 ± 5%.

For O=c1c(-c2ccc(O)cc2)coc2cc(O)ccc12 [Example M2, 4',7-dihydroxyisoflavone, reference compound], which Ki (estrogen receptors) is on record?
The Ki was 0.127 µM.

How did the “45Ca release, treated over control (T/C) ratio” value [2] turn out when “bPTH 1-34: bovine parathyroid hormone fragment 1-34, used to induce resorption (AVSEIQFMHNLGKHLSSMERVEWLRKKLQDVHNF; Parathyroid hormone; UniProt P01268 32-65, looked up, fragment)” was run?
Its value is 4.27±0.33.

Source: EP0954520B1, “ISOFLAVONE DERIVATIVES, PROCESSES FOR THE PREPARATION THEREOF AND PHARMACEUTICAL COMPOSITIONS CONTAINING THEM” (CHIESI FARMACEUTICI S.p.A., priority 1997, dated 1998)
